Source: patent US20220387410A1, “4-[5-[(rac)-1-[5-(3-Chlorophenyl)-3-isoxazolyl]ethoxy]-4-methyl-4H-1,2,4-triazol-3-yl]pyridine for use in prevention and/or treatment of surmenage in a mammal” (priority 2019, published 2022)
Read-outs that look alike come from different tables or passages of the source. Marks after values point to notes of the source that are not given here.

Columns and labels:
[1] = test system: Mice; conditions: p<0.001, cited from earlier work
[2] = test system: cat or dog undergoing elective castration or ovariohysterectomy; test: Recovery after neutering, TT001 added as pre-medication (Example 1); format: in vivo
Description: To study recovery after neutering, cage demeanour scoring using a simple descriptive scale was used. The dogs were premedicated with acepromazine and pethidine, intermuscular (i.m.) in a first group, or in a second group TT001 was also added as pre-medication.
(§1) Twenty to forty minutes after pre-medication, the sedation was scored with the SDS (simple descriptive scale). The dogs were induced with propofol. Anesthesia was maintained with isoflurane in oxygen. Intraoperative analgesia was provided with morphine, prior to surgery. At the end of the surgery, group 1 received meloxicam, while group 2 received no additional treatment.
(§2) At the end of the procedure and recovery SDS was scored.

[3] = Dissolution of TT001 in I.V. formulation vehicle; format: physicochemical; conditions: 0.1-10 mg/mL in 40% w/v HPβCD in water for injection; a couple of hours for complete dissolution
Description: Formulation Method for the Preparation of TT001 for I.V. Dosing, 0.1 to 10 mg/ml
The formulation method is applicable at concentrations in formulation between 0.1 and 10 mg/mL corresponding to 0.262 and 26.2 μmol/mL
Preparation of 40% w/v HPβCD solution in water for injection
Preparation of TT001 I.V. formulations between 0.1 and 10 mg/ml

[4] = test system: dogs; test: Toxicological studies in dogs, maximum 52 weeks, gavage; format: in vivo, dog; conditions: dogs, 2, 6, 7 or 31 mg/kg by gavage, after 52 weeks
Description: Toxicological studies for TT001 in dogs, were performed on dogs using 2, 6, 7 or 31 mg/kg, for a maximum of 52 weeks. The dogs were fed with gavage throughout this period and blood samples were taken throughout the period.
Balcome at al Contemporary Topics 2004 by the American Association for Laboratory Animal Science. Vol 43. […] In addition, the animals are separated and live in small areas which further increase the stress.

[5] = test system: humans; conditions: cited from earlier work
[6] = test system: cat or dog undergoing elective castration or ovariohysterectomy; test: Recovery after neutering, TT001 plus meloxicam vs meloxicam (Example 2); format: in vivo
Description: To study recovery after neutering, cage demeanour scoring using a simple descriptive scale was used. The dogs were premedicated with acepromazine and pethidine, i.m. in a first group, and meloxicam orally or in a second group TT001 was also added as pre-medication.
as §1, with “pre-medication” for “pre-medication,”, “continued to receive” for “received”, “continued to receive TT001 as well as meloxicam. No” for “received no”, “treatment was administered.” for “treatment.”
as §2

[7] = test system: rats; test: Learned helplessness studies; format: in vivo, rat
From the text: Nomura S. et al., Studies on animal model of depression: review and perspective, Review, Yakubutsu Seishin Kodo, 1989 December; 9(4):349-58.
TT001 was used in learned helplessness studies in rats.

[8] = test system: TLESR; conditions: healthy volunteers, cited from earlier work
[9] = test system: mouse FST behavior; test: Forced Swim Test; format: in vivo; conditions: for Immobility duration: mouse FST, vehicle 112.5 ± 14.10
From the text: TT001 has been used in the Forced Swim Test. _For protocol see Can A., et al., The Mouse Forced Swim Test, J Vis Exp. 2012; (59): 3638.

[10] = test system: dogs; conditions: cited from earlier work
[11] = cat or dog undergoing elective castration or ovariohysterectomy
[12] = group 2 (TT001 pre-medication) vs group 1
[13] = group 2 (TT001 + meloxicam) vs group 1 (meloxicam)

SMILES: CN1CC(=O)NC1=NC(=O)Nc1cccc(Cl)c1 [Fenobam]
- stress-induced hyperthermia (SIH) ([1]; 10 mg/kg): significantly reversed
- stress-induced hyperthermia (SIH) ([1]; 30 mg/kg): significantly reversed

SMILES: C[C@@H](Oc1nnc(-c2ccncc2)n1C)c1cc(-c2cccc(Cl)c2)on1 [TT001, 4-[5-[(1R)-1-[5-(3-Chlorophenyl)-3-isoxazolyl]ethoxy]-4-methyl-4H-1,2,4-triazol-3-yl]pyridine]
- effect on duration of the recovery period [2, 11]: positive effect
- cortisol values ([2]; group 2 (TT001) vs commonly used anesthesia protocol): Lower
- Time to extubation ([2]; group 2 (TT001 added as pre-medication) vs group 1 (acepromazine, pethidine; meloxicam after surgery)): shorter
- Time to lifting the head after surgery [2, 12]: shorter
- Time to raising from the bed after surgery [2, 12]: shorter
- Time to start of spontaneous/voluntary urination after surgery [2, 12]: shorter
- Time to starting to eat after surgery [2, 12]: shorter
- nausea [2, 12]: Less
- dissolution [3]: moderate
- signs of gastric ulcer [4]: none of the animals showed signs of gastric ulcer
- effect on anxiety ([5]; humans): no effect
- clinical effect in all indications (chronic pain, anxiety, GERD) ([5]; man, oral, clinical development discontinued): lack of effect
- effect on duration for the recovery period [6, 11]: positive effect
- Time to extubation [6, 13]: shorter
- Time to lifting the head after surgery [6, 13]: shorter
- Time to raising from the bedding after surgery [6, 13]: shorter
- Time to start of spontaneous/voluntary urination after surgery [6, 13]: shorter
- Time to starting to eat after surgery [6, 13]: shorter
- cortisol values [6, 13]: Lower
- nausea [6, 13]: Less
- time in intensive care/PACU unit [6, 13]: Less
- Escape Failures, Day 4 Mean ([7]; 1.8 μmol/kg, vehicle 11.1): 2.2
- Escape Failures, Day 3 Mean ([7]; 1.8 μmol/kg, vehicle 23.2): 6.9
- Escape Failures, Total Day 3 + Day 4 ([7]; 1.8 μmol/kg, vehicle 34.25, p < 0.05 vs vehicle): 9.1 ^a
- stomach ulcers ([7]; learned helplessness studies): did not appear
- effect on TLESR ([8]; 13 mg (about 0.19 mg/kg), 2 to 3 hours after food-intake): some effect
- side effects ([8]; high doses of 13 mg): Some serious side effects
- effect on reflux ([8]; prior to food intake and 1-2 hours after food intake): no significant effect
- Immobility duration ([9]; TT001 3 μmol/kg): 51.15 ± 7.788 ^a sec
- Immobility duration ([9]; TT001 10 μmol/kg): 47.45 ± 11.45 ^a sec
- Immobility duration ([9]; TT001 30 μmol/kg): 44.83 ± 4.693 ^a sec
- signs of gastric ulcer or changes in mucosa ([9]; test animals of the mouse Forced Swim Test): none of the test animals had signs of gastric ulcer

SMILES: COc1cccc(C2(O)CCCCC2CN(C)C)c1 (centres unmarked) [Tramadol]
- pain killer effect [10]: not present
